Laboratory results: publication PMC8589421, “Impact of Type II LRRK2 inhibitors on signaling and mitophagy” (Biochemical Journal, 2021)
Entries after “also recorded” stand apart in the source; their conditions may differ. Like-named read-outs stand apart in the source and are kept apart here.

Columns and labels:
[1] = test system: LRRK2 mediated phosphorylation of Rab10 at Thr73; test: Rab10 Thr73 phospho-immunoblot in wild-type MEFs; assay type: cell-based, mouse; settings: for IC50: Mus musculus
Procedure: Wild-type and homozygous LRRK2 [R1441C] […] All cells were grown at 37°C, 5% (by vol) CO2 in a humidified atmosphere and regularly tested for mycoplasma contamination.
(§1) Inhibitors were dissolved in dimethyl sulfoxide (DMSO) (Sigma, #D2650). The inhibitors were diluted 1000× into cell medium. The equivalent volume of DMSO was added to the minus inhibitor controls. Experiments were performed in six-well plates, 10 cm dishes or 15 cm dishes depending on the amount of cell extract required.
(§2) Lysates were incubated on ice for 30 min and clarified by centrifugation at 20 800×g at 4°C for 20 min. Supernatants were quantified by Bradford assay (Bio-Rad Protein Assay Dye Reagent Concentrate #5000006) and samples prepared in 1× lithium dodecyl sulfate sample buffer final concentration (NuPage LDS Sample buffer 4× Invitrogen, #NP0008). When not deployed immediately, lysates were snap-frozen in liquid nitrogen and stored at −80°C until use.
Cell extracts were mixed with a quarter of a volume of NuPage LDS Sample buffer 4× Invitrogen and heated at 95°C for 5 min. […] At the end of electrophoresis, proteins were electrophoretically transferred onto the nitrocellulose membrane (GE Healthcare, Amersham Protran Supported 0.45 µm NC) at 100 V for 90 min on ice in the transfer buffer (48 mM Tris–HCl and 39 mM glycine supplemented with 20% methanol). Transferred membrane was blocked with 5% (w/v) skim milk powder dissolved in TBS-T [20 mM Tris–HCl, pH 7.5, 150 mM NaCl and 0.1% (v/v) Tween 20] at room temperature for 1 h. The membrane was typically cropped into three pieces, namely the ‘top piece’ (from the top of the membrane to 75 kDa), the ‘middle piece’ (between 75 and 30 kDa) and the ‘bottom piece’ (from 30 kDa to the bottom of the membrane). All primary antibodies were used at 1 μg/ml final concentration and incubated in TBS-T containing 5% (by mass) bovine serum albumin with exception of α-tubulin and GAPDH antibodies that were diluted 1 : 5000 and 1 : 2000, respectively. The top piece was incubated with the indicated rabbit anti-LRRK2 phosphorylation site antibody multiplexed with mouse anti-LRRK2 C-terminus total antibody. The middle piece was incubated with mouse anti-GAPDH or anti-α-tubulin antibody. The bottom pieces were incubated with indicated total and phospho-Rab antibodies. Membranes were incubated in primary antibody overnight at 4°C. Prior to secondary antibody incubation, membranes were washed three times with TBS-T for 10 min each. […] Membranes were washed with TBS-T for three times with a 10 min incubation for each wash. Protein bands were acquired via near infrared fluorescent detection using the Odyssey CLx imaging system and quantified using the Image Studio software.

[2] = test system: LRRK2 Ser935 phosphorylation, LRRK2[R1441C]; test: LRRK2 Ser935 phospho-immunoblot in LRRK2[R1441C] knock-in MEFs; assay type: cell-based, mouse
Procedure: Wild-type and homozygous LRRK2 [R1441C] (Jax, stock number: 009346), LRRK2[G2019S] Taconic, (model 13940) and LRRK2 [A2016T] (Jax, stock number: 021828)[7] knock-in MEF cells were isolated from littermate-matched mouse embryos on a C57BL/6J background at day E12.5 as described previously. MEFs were grown in Dulbecco's modified Eagle medium (DMEM GIBCO, #11960-085) containing 10% (by vol) fetal bovine serum (FBS), 2 mM L-glutamine, 100 U/ml penicillin, and […] streptomycin supplemented with non-essential amino acids and 1 mM sodium pyruvate. Human embryonic kidney 293 (HEK293) (#ATCC CRL-1573) and HeLa (#ATCC CCL-2) cells were purchased from American Tissue Culture Collection (ATCC) and cultured in DMEM containing 10% (by vol) FBS, 2 mM L-glutamine, 100 U/ml penicillin, and […] streptomycin. All cells were grown at 37°C, 5% (by vol) CO2 in a humidified atmosphere and regularly tested for mycoplasma contamination.
as §1
as §2, with “Cells were lysed in an ice-cold lysis buffer containing 50 mM Tris–HCl, pH 7.4, 1% (by vol) Triton X-100, 10% (by vol) glycerol, 150 mM NaCl, 1 mM sodium orthovanadate, 50 mM NaF, 10 mM 2-glycerophosphate, 5 mM sodium pyrophosphate, 1 µg/ml microcystin-LR, and cOmplete EDTA-free protease inhibitor cocktail (Roche, #11836170001). Lysates” for “Lysates”
Cell extracts were mixed with a quarter of a volume of NuPage LDS Sample buffer 4× Invitrogen and heated at 95°C for 5 min. […] At the end of electrophoresis, proteins were electrophoretically transferred onto the nitrocellulose membrane (GE Healthcare, Amersham Protran Supported 0.45 µm NC) at 100 V for 90 min on ice in the transfer buffer (48 mM Tris–HCl and 39 mM glycine supplemented with 20% methanol). Transferred membrane was blocked with 5% (w/v) skim milk powder dissolved in TBS-T [20 mM Tris–HCl, pH 7.5, 150 mM NaCl and 0.1% (v/v) Tween 20] at room temperature for 1 h. […]

Q: `Cc1ccc(C(=O)Nc2ccc(CN3CCN(C)CC3)c(C(F)(F)F)c2)cc1C#Cc1cnc2[nH]ncc2c1` [GZD-824] was tested. Which IC50 ([1]; 2 h, Figure 4, read-out: IC50 for dephosphorylation of Rab10, wild type MEFs (estimate in text)) did it give?
A: The IC50 was 70 nM.

Q: And the IC50 ([1]; 2 h, wild type MEFs littermate matched to LRRK2[G2019S], 2 h, panel (B), read-out: LRRK2 WT Rab10 pThr73 IC50)?
A: The IC50 was 65.9 nM.

Q: And the IC50 ([1]; 2 h, wild type MEFs littermate matched to LRRK2[R1441C], 2 h, panel (A), read-out: LRRK2 WT Rab10 pThr73 IC50)?
A: The IC50 was 86.5 nM.

Q: And the IC50 ([1]; 2 h, wild-type MEFs, 2 h, Figure 2A, read-out: IC50 inhibition of Rab10 phosphorylation)?
A: Its IC50 is roughly 300 nM.

Q: What about the “Rab10 phosphorylation level after treatment” value ([1]; wild-type MEFs, 1 μM, 2 h) of the same compound?
A: Its value is “almost background levels; also recorded: almost basal levels”.

Q: And the “Rab10 phosphorylation over 24 h time course” value ([1]; wild-type MEFs, 1 μM, 24 h)?
A: Its value is “remained suppressed”.

Q: And the “time to 50% reduction of Rab10 phosphorylation” value ([1]; wild-type MEFs, 1 μM, Figure 2C)?
A: The value was roughly 10 min.

Q: And the “time at which Ser935 phosphorylation plateaued” value ([2]; LRRK2[R1441C] cells, 1 μM)?
A: Its value is 160 min.

Q: And the “time by which Ser935 phosphorylation increased” value ([2]; LRRK2[R1441C] cells, 1 μM)?
A: Its value is no more than 40 min.

Q: And the “effect on Ser935 phosphorylation in LRRK2[R1441C] knock-in cells” value ([2]; dose and time dependent)?
A: The value was “rescue Ser935 phosphorylation”.
